Structures can show the parent of a compound that is named as a salt.

Assay [1] deals with KPC-2 β-lactamase (Klebsiella pneumoniae, UniProt Q9F663). Kind of assay: Inhibition kinetics of KPC-2 with nitrocefin as reporter substrate. The class given is biochemical, K. pneumoniae. The note with it: KPC-2, 100 μM nitrocefin, 1×PBS pH 7.4, 25° C. The procedure: Inhibition or inactivation of KPC-2 by test inhibitors was assessed using 100 μM nitrocefin (NCF) as a reporter substrate. Assays were performed in 1×PBS pH 7.4, 0.1 mg/ml BSA, in 96-well half area plates, 50 μl reaction volume. NCF was dissolved in DMSO and diluted in assay buffer. Test inhibitors were dissolved in water or DMSO and serially diluted in the assay with final concentrations between […] The enzyme activity in the presence of varying concentrations of test inhibitor was determined by monitoring the hydrolysis of NCF spectrophotometrically at 486 nm, for 5 minutes, 25° C., using a SpectraMax Plus384 microplate reader with SoftMax Pro software (Molecular Devices). Data analysis was performed using GraphPad Prism (GraphPad Software, Inc.).
Sequence of KPC-2 β-lactamase (Q9F663 25-293 limits assumed): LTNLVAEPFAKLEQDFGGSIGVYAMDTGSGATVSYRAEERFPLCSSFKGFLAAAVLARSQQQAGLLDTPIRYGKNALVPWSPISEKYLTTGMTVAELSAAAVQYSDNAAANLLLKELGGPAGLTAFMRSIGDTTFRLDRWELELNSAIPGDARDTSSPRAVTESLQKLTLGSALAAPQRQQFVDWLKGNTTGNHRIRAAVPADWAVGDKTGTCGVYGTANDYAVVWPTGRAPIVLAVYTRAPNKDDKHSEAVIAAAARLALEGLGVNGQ
Progress curves were fit to a first-order rate decay equation (Eq. 1) to determine kobserved (kobs).
kobs vs. inhibitor concentration [I] curves were then fit to Eq.2 to determine the inhibitor dissociation constant (K) and the first order rate constant of enzyme inactivation at infinite inhibitor concentration (kinact). […] Yt=V0*(1−e^(−kobs^*t))/kobs Eq. 1 Where Y is the absorbance at time t, Vo is the uninhibited enzyme velocity, kobs is the observed rate constant of the enzyme inactivation. kobs=kinact*[I]/([I]+K(1+S/Km)) Eq. 2 Where S is the NCF concentration, Km is the KPC-2 Km for NCF

Assay [2] deals with bacterial strains that express KPC β-lactamases. The experiment in a line: Synergy MIC / standard BLI potentiation MIC assay, strains expressing KPC β-lactamases. The class given is cell-based. The note with it: at least one KPC strain and/or better spectrum; in the presence of a β-lactam. The method, then:
(§1) The experimental protocol was performed according to Clinical and Laboratory Standards Institute (CLSI) guidelines with modifications as described below (CLSI guidelines can be derived from the CLSI document M07-A9 published in January 2012: “Methods for Dilution Antimicrobial Susceptibility Tests for Bacteria That Grow Aerobically; Approved Standard-Ninth Edition”).
(§2) To prepare for MIC testing, frozen glycerol stocks of clinical isolates (Klebsiella pneumoniae, Eschericia coli, Enterobacter spp, Citrobacter spp, or Pseudomonas aeruginosa) were used to streak for isolated colonies on rich, non-selective, tryptic soy agar containing 5% sheep's blood (TSAB). Frozen glycerol stocks of laboratory engineered, isogenic E. coli strains, which contain cloned β-lactamase expressing plasmids were used to streak for isolated colonies on rich, selective LB agar supplemented with 25 μg/mL tetracycline to maintain the plasmid. All strains were incubated at 37° C. for 18-24 hrs.
(§3) On the day of testing, primary cultures were started by scraping off 5-10 colonies from the TSAB plates containing clinical strains or the tetracycline supplemented LB plates containing engineered strains. The clinical strain material was suspended in ˜5 mL of cation adjusted Mueller Hinton Broth (CAMHB) in 14 mL culture tubes. The engineered strain material was suspended in CAMHB (supplemented with 25 μg/mL tetracycline) in 14 mL culture tubes. All strains were incubated at 37° C. with aeration (200 rpm) for ˜2 hrs until the optical density at 600 nm (OD600) was >0.1.
(§4) The two compound components of the assay were each diluted in CAMHB and added to the 96-well broth microdilution assay plates. 50 μL of the β-lactam was added to each well of the assay plate in 2-fold dilutions with final concentrations ranging from 128 to 0.13 μg/mL. 25 μL of the BLI compound was added to all wells in the broth microdilution plates at a final concentration of 4 μg/mL. Inoculum cultures were prepared by standardizing the primary cultures to OD600=0.1 and then adding 20 μL of the adjusted primary culture per 1 mL CAMHB for clinical strains or CAMHB (supplemented with tetracycline at 100 μg/mL) for engineered strains, so that the final inoculum density was ˜10^5 colony forming units per milliliter. Diluted inoculum cultures were used to inoculate 25 μl, per well in 96-well broth microdilution assay plates. The final volume of each well was 100 μL and contained a β-lactam at different concentrations, a BLI compound at 4 μg/mL concentration, the bacterial culture at an OD600 of approximately 0.001 and when necessary tetracycline at 25 μg/mL.
(§5) Plates were incubated for 18-20 hours at 37° C. with aeration (200 rpm). Following incubation, growth was confirmed visually placing plates over a viewing apparatus (stand with a mirror underneath) and then OD600 was measured using a SpectraMax 340PC384 plate reader (Molecular Devices, Sunnyvale, Calif.). Growth was defined as turbidity that could be detected with the naked eye or achieving minimum OD600 of 0.1. MIC values were defined as the lowest concentration producing no visible turbidity.
The synergy MIC (sMIC) assay determines the concentration of the BLI required to potentiate the activity of a fixed concentration of a β-lactam antibiotic against β-lactamase producing bacterial strains. The experimental protocol was performed according to Clinical and Laboratory Standards Institute (CLSI) guidelines with modifications as described below (CLSI guidelines can be derived from the CLSI document M07-A9 published in January 2012: “Methods for Dilution Antimicrobial Susceptibility Tests for Bacteria That Grow Aerobically; Approved Standard-Ninth Edition”). […]

For assay [3], the system named is bacterial strains that express the class D cephalosporinase OXA-15. The experiment in a line: Synergy MIC / standard BLI potentiation MIC assay, strains expressing OXA-15. The class given is cell-based, E. coli. The settings on record: in the presence of a β-lactam; comparator Avibactam (CCC). The method, then: as §1, §2, §3, §4, §5
The synergy MIC (sMIC) assay determines the concentration of the BLI required to potentiate the activity of a fixed concentration of a β-lactam antibiotic against β-lactamase producing bacterial strains. […]

As to `NCCc1cc([C@@H]2CC[C@@H]3CN2C(=O)N3OS(=O)(=O)O)no1` [Compound 602, (2S,5R)-2-(5-(2-aminoethyl)isoxazol-3-yl)-7-oxo-1,6-diazabicyclo[3.2.1]octan-6-yl hydrogen sulfate], in assay [1], the “inactivation efficiency (kinact/K)” value was 1-99 mM^−s^−1. Also, the “activity and/or spectrum of activity against bacterial strains that express KPC β-lactamases, compared with Avibactam” value in assay [2] is reported as “more active than Avibactam”.

`N=C(N)NCCc1cc([C@@H]2CC[C@@H]3CN2C(=O)N3OS(=O)(=O)O)no1` [Compound 604, (2S,5R)-2-(5-(2-guanidinoethyl)isoxazol-3-yl)-7-oxo-1,6-diazabicyclo[3.2.1]octan-6-yl hydrogen sulfate]: the “activity and/or spectrum of activity against bacterial strains that express KPC β-lactamases, compared with Avibactam” value in assay [2] was “more active than Avibactam”. Besides, the “activity against bacterial strains that express OXA-15, compared with Avibactam” value in assay [3] is recorded as “more active than Avibactam”.

Take `CN(Cc1cc([C@@H]2CC[C@@H]3CN2C(=O)N3OS(=O)(=O)O)no1)C(=N)N` [Compound 614, (2S,5R)-2-(5-((1-methylguanidino)methyl)isoxazol-3-yl)-7-oxo-1,6-diazabicyclo[3.2.1]octan-6-yl hydrogen sulfate]: the “activity and/or spectrum of activity against bacterial strains that express KPC β-lactamases, compared with Avibactam” value in assay [2] is recorded as “more active than Avibactam”. For the same compound, the “activity against bacterial strains that express OXA-15, compared with Avibactam” value in assay [3] is reported as “more active than Avibactam”.

Turning to `O=C1N2C[C@@H](CC[C@H]2c2cc(CC3CNC3)on2)N1OS(=O)(=O)O` [Compound 618, (2S,5R)-2-(5-(azetidin-3-ylmethyl)isoxazol-3-yl)-7-oxo-1,6-diazabicyclo[3.2.1]octan-6-yl hydrogen sulfate], the “activity and/or spectrum of activity against bacterial strains that express KPC β-lactamases, compared with Avibactam” value in assay [2] is listed as “more active than Avibactam”. Further, the “activity against bacterial strains that express OXA-15, compared with Avibactam” value in assay [3] was “more active than Avibactam”.

Source of the values: US8927724B2, “Isoxazole beta-lactamase inhibitors” (priority 2012, dated 2015).
